Measurements as given in PubChem BioAssay AID248 (DTP/NCI, 2004).
Values joined by “and” are separate entries in the source; they are usually repeats but may differ in a detail not shown here. Equal entries are not always repeated. Inconclusive results and toxic doses are left out. Rule as the data show it: active = T/C of 150% or more; inactive = T/C below 125%.

Test system: L1210 leukemia ip in BDF1 mice, survival T/C
Assay: NCI In Vivo Anticancer Drug Screen. Data for tumor model L1210 Leukemia (intraperitoneal) in B6D2F1 (BDF1) mice
Conditions: endpoint: mean survival time, higher = longer survival
Procedure, shortened: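 Transplantable tumor model; survival measured in treated vs vehicle control mice. Value = treated/control.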

[1] = dose: 50.0 mg/kg/injection, schedule: Q01DX001 (ip), vehicle: saline
[2] = dose: 100.0 mg/kg/injection, schedule: Q01DX001 (ip), vehicle: saline
[3] = dose: 100.0 mg/kg/injection, schedule: Q01DX009 (ip), vehicle: Klucel (hydroxypropylcellulose) (HPC)
[4] = dose: 100.0 mg/kg/injection, schedule: Q04DX003 (ip), vehicle: Klucel (hydroxypropylcellulose) (HPC)
[5] = dose: 200.0 mg/kg/injection, schedule: Q01DX001 (ip), vehicle: saline
[6] = dose: 200.0 mg/kg/injection, schedule: Q01DX009 (ip), vehicle: Klucel (hydroxypropylcellulose) (HPC)
[7] = dose: 200.0 mg/kg/injection, schedule: Q04DX003 (ip), vehicle: Klucel (hydroxypropylcellulose) (HPC)
[8] = dose: 400.0 mg/kg/injection, schedule: Q01DX001 (ip), vehicle: saline
[9] = dose: 400.0 mg/kg/injection, schedule: Q01DX009 (ip), vehicle: Klucel (hydroxypropylcellulose) (HPC)
[10] = dose: 400.0 mg/kg/injection, schedule: Q04DX003 (ip), vehicle: Klucel (hydroxypropylcellulose) (HPC)
[11] = dose: 100.0 mg/kg/injection, schedule: Q01DX001 (ip), vehicle: carboxymethylcellulose (CMC)
[12] = dose: 200.0 mg/kg/injection, schedule: Q01DX001 (ip), vehicle: carboxymethylcellulose (CMC)
[13] = dose: 400.0 mg/kg/injection, schedule: Q01DX001 (ip), vehicle: carboxymethylcellulose (CMC)
[14] = dose: 100.0 mg/kg/injection, schedule: Q04DX003 (ip), vehicle: saline with Tween-80
[15] = dose: 200.0 mg/kg/injection, schedule: Q04DX003 (ip), vehicle: saline with Tween-80
[16] = dose: 400.0 mg/kg/injection, schedule: Q04DX003 (ip), vehicle: saline with Tween-80
[17] = dose: 50.0 mg/kg/injection, schedule: Q01DX001 (ip), vehicle: carboxymethylcellulose (CMC)
[18] = dose: 50.0 mg/kg/injection, schedule: Q04DX003 (ip), vehicle: Klucel (hydroxypropylcellulose) (HPC)
[19] = dose: 100.0 mg/kg/injection, schedule: Q01DX009 (ip), vehicle: saline with Tween-80
[20] = dose: 200.0 mg/kg/injection, schedule: Q01DX009 (ip), vehicle: saline with Tween-80
[21] = dose: 100.0 mg/kg/injection, schedule: Q01DX009 (ip), vehicle: saline
[22] = dose: 100.0 mg/kg/injection, schedule: Q04DX003 (ip), vehicle: saline
[23] = dose: 200.0 mg/kg/injection, schedule: Q01DX009 (ip), vehicle: saline
[24] = dose: 200.0 mg/kg/injection, schedule: Q04DX003 (ip), vehicle: saline
[25] = dose: 400.0 mg/kg/injection, schedule: Q01DX009 (ip), vehicle: saline
[26] = dose: 400.0 mg/kg/injection, schedule: Q04DX003 (ip), vehicle: saline

Measured: T/C

OCC(F)(F)C(F)(F)C(F)(F)C(F)F
inactive: [1] 94 % of control | [2] 102 % of control | [3] 101 % of control | [4] 102 % of control | [5] 96 % of control | [6] 101 % of control | [7] 102 % of control | [8] 94 % of control | [9] 103 % of control | [10] 105 % of control

CC1NCc2c(N)ncnc21 (centres undefined)
inactive: [11] 106 % of control | [12] 112 % of control | [13] 98 % of control

CCCc1cc(C)cc(N=Cc2ccccc2)c1O
inactive: [14] 101 % of control | [15] 97 % of control | [16] 98 % of control

O=C(c1ccccc1)c1ccc(C2CCCCC2)cc1
inactive: [17] 98 % of control | [11] 104 % of control | [12] 98 % of control | [13] 100 % of control

CC(C)NC1(C(N)=O)CCN(Cc2ccccc2)CC1
inactive: dose: 50.0 mg/kg/injection, schedule: Q01DX009 (ip), vehicle: Klucel (hydroxypropylcellulose) (HPC) 95 % of control | [18] 98 % of control | [3] 100 % of control | [4] 93 % of control | [6] 104 % of control | [7] 95 % of control

BrCCC[P+](c1ccccc1)(c1ccccc1)c1ccccc1
inactive: dose: 12.5 mg/kg/injection, schedule: Q01DX009 (ip), vehicle: saline with Tween-80 103 % of control | dose: 25.0 mg/kg/injection, schedule: Q04DX003 (ip), vehicle: saline with Tween-80 97 % of control | [1] 104 % of control | [18] 107 % of control | dose: 50.0 mg/kg/injection, schedule: Q04DX003 (ip), vehicle: saline with Tween-80 97 % of control | [2] 116 % of control

CCC(C)(C)c1ccc(O)c(C(=O)O)c1
inactive: [11] 90 % of control | [12] 95 % of control

CC1(C)OCC(C(OC(=O)c2ccccc2)C(OC2CCCCO2)C2COC(C)(C)O2)O1 (centres undefined)
inactive: [4] 94 % of control | [7] 96 % of control | [10] 94 % of control

COc1ccc(CC(=O)NCCc2ccccc2)cc1
inactive: [11] 96 % of control | [12] 98 % of control | [13] 96 % of control

O=C(NC(=O)c1ccc(Cl)cc1)Nc1ccc(Cl)cc1C(F)(F)F
inactive: dose: 50.0 mg/kg/injection, schedule: Q01DX009 (ip), vehicle: saline with Tween-80 98 % of control | [19] 103 % of control | [20] 98 % of control

CCN1C(c2ccccc2)C1c1ccccc1 (centres undefined)
inactive: [4] 101 % of control | [7] 102 % of control | [10] 101 % of control

CCOC(=O)C(=O)c1ccccc1
inactive: [19] 100 % of control | [14] 96 % of control | [20] 103 % of control | [15] 103 % of control | dose: 400.0 mg/kg/injection, schedule: Q01DX009 (ip), vehicle: saline with Tween-80 97 % of control | [16] 103 % of control

O=C(N/C=C/NC(=O)NCc1ccco1)NCc1ccco1
inactive: [3] 97 % of control | [6] 87 % of control

Cc1sc2c(c1-c1ccccc1)C(=O)CCCN2
inactive: [14] 94 % of control | [15] 100 % of control | [16] 100 % of control

O=C(O)CNCc1ccc(Cl)c(Cl)c1
inactive: dose: 75.0 mg/kg/injection, schedule: Q01DX009 (ip), vehicle: saline 100 % of control | [21] 97 % of control and 120 % of control | [22] 96 % of control | dose: 150.0 mg/kg/injection, schedule: Q01DX009 (ip), vehicle: saline 99 % of control | [23] 111 % of control | [24] 102 % of control | [25] 95 % of control | [26] 90 % of control

CC(=O)OCC(C)OC(C)=O (centres undefined)
inactive: [21] 98 % of control | [22] 106 % of control | [23] 95 % of control | [24] 97 % of control | [25] 92 % of control | [26] 97 % of control

Cc1ccccc1NC(=O)c1ccccc1
inactive: [14] 100 % of control | [15] 98 % of control | [16] 98 % of control

c1ccc2c(c1)ccc1c3ccncc3ccc21
inactive: [2] 101 % of control | [5] 98 % of control | [8] 98 % of control

O=C(Cl)C(=O)c1c[nH]c2ccccc12
inactive: dose: 100.0 mg/kg/injection, schedule: Q04DX002 (ip), vehicle: Klucel (hydroxypropylcellulose) (HPC) 101 % of control | dose: 200.0 mg/kg/injection, schedule: Q04DX002 (ip), vehicle: Klucel (hydroxypropylcellulose) (HPC) 101 % of control | dose: 400.0 mg/kg/injection, schedule: Q04DX002 (ip), vehicle: Klucel (hydroxypropylcellulose) (HPC) 95 % of control

O=S(=O)(CCO)c1ccc2ccccc2c1
inactive: dose: 100.0 mg/kg/injection, schedule: Q01DX001 (ip), vehicle: Klucel (hydroxypropylcellulose) (HPC) 101 % of control | [4] 101 % of control | dose: 200.0 mg/kg/injection, schedule: Q01DX001 (ip), vehicle: Klucel (hydroxypropylcellulose) (HPC) 98 % of control | [7] 97 % of control | dose: 400.0 mg/kg/injection, schedule: Q01DX001 (ip), vehicle: Klucel (hydroxypropylcellulose) (HPC) 98 % of control | [10] 105 % of control

CC1(c2ccccc2)CCC(NN=C(N)N)=NC1 (centres undefined)
inactive: dose: 15.0 mg/kg/injection, schedule: Q01DX Z (ip), vehicle: methylcellulose (MC) 95 % of control | dose: 30.0 mg/kg/injection, schedule: Q01DX Z (oral), vehicle: methylcellulose (MC) 97 % of control | dose: 60.0 mg/kg/injection, schedule: Q01DX Z (ip), vehicle: methylcellulose (MC) 101 % of control | dose: 60.0 mg/kg/injection, schedule: Q01DX Z (oral), vehicle: methylcellulose (MC) 91 % of control | dose: 120.0 mg/kg/injection, schedule: Q01DX Z (ip), vehicle: methylcellulose (MC) 95 % of control | dose: 120.0 mg/kg/injection, schedule: Q01DX Z (oral), vehicle: methylcellulose (MC) 101 % of control | dose: 240.0 mg/kg/injection, schedule: Q01DX Z (ip), vehicle: methylcellulose (MC) 93 % of control | dose: 240.0 mg/kg/injection, schedule: Q01DX Z (oral), vehicle: methylcellulose (MC) 93 % of control | dose: 375.0 mg/kg/injection, schedule: Q01DX Z (oral), vehicle: methylcellulose (MC) 89 % of control | dose: 420.0 mg/kg/injection, schedule: Q01DX Z (ip), vehicle: methylcellulose (MC) 93 % of control | dose: 500.0 mg/kg/injection, schedule: Q01DX Z (oral), vehicle: methylcellulose (MC) 86 % of control | dose: 600.0 mg/kg/injection, schedule: Q01DX Z (ip), vehicle: methylcellulose (MC) 92 % of control | dose: 625.0 mg/kg/injection, schedule: Q01DX Z (oral), vehicle: methylcellulose (MC) 93 % of control

O=C(O)C1(O)c2ccccc2-c2ccc(Cl)cc21 (centres undefined)
inactive: [17] 103 % of control | [11] 105 % of control | [12] 114 % of control | [13] 103 % of control

CC(C)N(C(=O)Nc1cc([N+](=O)[O-])ccc1F)c1ccccc1
inactive: [4] 96 % of control | [7] 100 % of control | [10] 96 % of control

O=NN(Cc1ccc(Cl)cc1)C(=O)NCc1ccc(Cl)cc1
inactive: dose: 400.0 mg/kg/injection, schedule: Q01DX Z (ip), vehicle: carboxymethylcellulose (CMC) 104 % of control

CCCC(C)(C)C(=O)Nc1cccc(O)c1
inactive: [14] 95 % of control | [15] 95 % of control | [16] 92 % of control

CCc1c(C)nc2[nH]ncn2c1=O
inactive: dose: 75.0 mg/kg/injection, schedule: Q01DX001 (ip), vehicle: other 96 % of control | dose: 150.0 mg/kg/injection, schedule: Q01DX001 (ip), vehicle: other 97 % of control | dose: 300.0 mg/kg/injection, schedule: Q01DX001 (ip), vehicle: other 93 % of control

c1ccc2c(C3OCC4(CCC4)CO3)cccc2c1
inactive: [3] 91 % of control | [4] 91 % of control | [6] 96 % of control | [7] 100 % of control | [9] 97 % of control | [10] 94 % of control
